Experimental data: ChEMBL document CHEMBL5042541 (J Med Chem, 2022)
pKd: −log10 of the molar value.

Legend:
[1] = Lipophilicity, logD of compound at pH 7.5; assay type: physicochemical; settings: buffer
[2] = molecular target: Keap1/Nrf2 (Homo sapiens, UniProt Q14145)
Keap1/Nrf2, sequence (Q16236 whole entry): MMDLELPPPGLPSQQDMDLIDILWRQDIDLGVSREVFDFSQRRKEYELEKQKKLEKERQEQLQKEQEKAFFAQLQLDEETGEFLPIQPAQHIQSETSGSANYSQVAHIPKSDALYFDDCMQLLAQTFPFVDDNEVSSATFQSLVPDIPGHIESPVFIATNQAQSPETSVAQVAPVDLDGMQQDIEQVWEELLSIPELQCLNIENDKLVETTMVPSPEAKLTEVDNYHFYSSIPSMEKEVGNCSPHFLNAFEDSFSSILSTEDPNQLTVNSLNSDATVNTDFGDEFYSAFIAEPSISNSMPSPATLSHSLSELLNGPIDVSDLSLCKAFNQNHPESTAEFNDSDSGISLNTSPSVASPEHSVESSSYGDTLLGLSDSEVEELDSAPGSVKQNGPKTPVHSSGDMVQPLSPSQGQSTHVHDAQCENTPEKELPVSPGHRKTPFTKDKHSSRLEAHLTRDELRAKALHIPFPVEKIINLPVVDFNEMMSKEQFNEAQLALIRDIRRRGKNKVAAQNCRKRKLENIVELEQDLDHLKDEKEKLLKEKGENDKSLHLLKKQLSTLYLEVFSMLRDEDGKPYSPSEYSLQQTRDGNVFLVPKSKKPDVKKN
Keap1/Nrf2, sequence (Q14145 whole entry): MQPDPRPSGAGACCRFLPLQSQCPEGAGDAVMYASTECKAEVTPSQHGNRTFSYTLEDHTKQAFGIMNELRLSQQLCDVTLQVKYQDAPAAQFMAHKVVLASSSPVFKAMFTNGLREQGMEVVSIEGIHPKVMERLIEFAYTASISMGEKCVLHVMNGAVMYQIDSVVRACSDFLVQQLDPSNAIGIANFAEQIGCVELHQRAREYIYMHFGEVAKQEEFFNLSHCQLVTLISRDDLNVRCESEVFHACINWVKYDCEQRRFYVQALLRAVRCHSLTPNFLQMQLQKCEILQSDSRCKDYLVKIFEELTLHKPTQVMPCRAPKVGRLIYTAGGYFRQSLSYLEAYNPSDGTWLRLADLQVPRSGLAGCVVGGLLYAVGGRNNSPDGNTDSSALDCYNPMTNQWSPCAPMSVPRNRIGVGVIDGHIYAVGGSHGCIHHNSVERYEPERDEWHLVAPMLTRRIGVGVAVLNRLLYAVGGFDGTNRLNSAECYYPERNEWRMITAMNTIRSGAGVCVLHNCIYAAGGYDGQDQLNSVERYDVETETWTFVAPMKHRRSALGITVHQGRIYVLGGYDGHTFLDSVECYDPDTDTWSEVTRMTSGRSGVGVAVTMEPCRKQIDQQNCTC

## CC(=O)N1CCC[C@H]1C(=O)N[C@@H]1COC(=O)c2ccccc2CSC[C@H](C(=O)N(C)C)NC1=O
[1]
  logD: 0.43

## CC(=O)N1CCC[C@H]1C(=O)N[C@@H]1CNC(=O)c2ccccc2COC[C@H](C(=O)N(C)C)NC1=O
[2]
  pKd: < 3.30
